The subject of assay [1] is UOK117 renal cell carcinoma xenografts. The assay can be described thus: UOK117 renal cell carcinoma xenografts in nude mice. It is filed as in vivo. To be noted: oral lavage 20 mg/kg/day from day 7, compared to vehicle-treated and untreated mice, FIG. 14. Here is the method: FIG. 14. […] Mice were inoculated with 1 million tumor cells in the hind flank. Treatment was started on day 7 by oral lavage at 20 mg/kg/day.

Assay [2] addresses T1, recombinant QSOX1 (Homo sapiens, UniProt O00391).
T1 construct: made in house
T1 sequence (O00391 30-747): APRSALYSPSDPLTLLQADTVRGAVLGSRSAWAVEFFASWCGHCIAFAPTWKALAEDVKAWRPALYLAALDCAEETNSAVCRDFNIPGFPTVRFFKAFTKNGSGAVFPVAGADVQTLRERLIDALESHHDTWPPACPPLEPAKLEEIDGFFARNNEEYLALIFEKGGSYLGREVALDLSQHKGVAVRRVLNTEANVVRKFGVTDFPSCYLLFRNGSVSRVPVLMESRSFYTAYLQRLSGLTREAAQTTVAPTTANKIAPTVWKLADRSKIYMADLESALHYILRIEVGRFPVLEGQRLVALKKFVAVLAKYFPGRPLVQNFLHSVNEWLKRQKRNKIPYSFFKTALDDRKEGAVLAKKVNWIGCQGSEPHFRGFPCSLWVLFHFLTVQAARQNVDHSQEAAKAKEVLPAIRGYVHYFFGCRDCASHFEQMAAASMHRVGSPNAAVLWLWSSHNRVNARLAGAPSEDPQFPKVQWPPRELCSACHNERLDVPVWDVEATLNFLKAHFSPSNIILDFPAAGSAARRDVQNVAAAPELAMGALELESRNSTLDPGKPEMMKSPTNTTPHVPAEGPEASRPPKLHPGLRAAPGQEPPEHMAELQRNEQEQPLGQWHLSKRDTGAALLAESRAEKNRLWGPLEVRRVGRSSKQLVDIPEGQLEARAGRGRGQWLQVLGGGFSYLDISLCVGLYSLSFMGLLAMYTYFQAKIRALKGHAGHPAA
The assay can be described thus: Fluorogenic HTS assay for QSOX1 inhibitors (H2O2 detection, RNAse A substrate). It is filed as biochemical. To be noted: library screen with recombinant QSOX1. The method, then:
FIG. 7. An in vitro assay to screen for QSOX1 inhibitors; Fluorogenic assay (also can be HTS). Enzymatically active recombinant QSOX1 is incubated with individual compounds in individual wells of a 384 well plate. […] Therefore, no fluorescence is observed.
In screening for inhibitors, recombinant QSOX1 was produced and tested in fluorogenic assays to make sure it was active. The recombinant enzyme then was sent to the Sanford Burnham Institute for use in the same/similar assay to screen libraries for chemical compounds that inhibit the enzymatic activity of QSOX1.
A peptide was identified in plasma from pancreatic cancer patients that mapped back to the QSOX1 parent protein (FIG. 1, prior art). […] A high throughput screening assay (HTS) was employed to screen a library of chemical compounds (50,000 compounds). The assay detects H2O2 produced by QSOX1 when it is enzymatically active (FIG. 7). Inhibition of the enzymatic activity of QSOX1 (with a chemical compound) suppresses H2O2 production, decreasing fluorescent or bioluminescent signal in the assay.

Assay [3] concerns MIAPaCa2 pancreatic tumor cells. Briefly: Boyden chamber invasion through Matrigel, MIAPaCa2. It is filed as cell-based. To be noted: FIG. 13.
The test system of assay [4] is 786-O cells. The assay can be described thus: Boyden chamber invasion through Matrigel, 786-O kidney cancer cells. It is filed as cell-based. To be noted: dose-dependent; FIG. 11. The source says: FIG. 11. Effect of Compound SBI-0143183 on Kidney cancer invasion through Matrigel (786-0).
Assay [5] has as its system myeloma cell lines. The assay can be described thus: MTT assay on myeloma cell lines. The class given is cell-based. To be noted: 2-fold serial dilutions, at higher doses, FIG. 15. The method, then: FIG. 15. MTT assay results from exposure of myeloma cell lines to SBI-183. Assay conditions: 25,000 cells per well were plated in a 96-well flat-bottom plate. 2-fold serial dilutions of SBI-183 were added to each well. % cell viability was calculated using the following formula: cmpd+cells/vehicle+cells*100%.
(In general: Tetrazolium assays rely on reduction of a dye to a coloured formazan, in cell work by metabolically active cells.)

In assay [6] the test system is 786-O. The assay can be described thus: Detection of laminin-α4 deposition with anti-LAMA4 antibody in kidney cancer cells. The class given is cell-based. To be noted: 15 uM SBI-183; 786-O kidney cancer cells; FIG. 12. Here is the method:
FIG. 12. 786-O Detection of laminin-α4 using anti-LAMA4 antibody in kidney cancer cells after incubation with 15uM SBI-183. […] Secondary alone indicates the goat anti-mouse antibody that was used to detect binding of anti-LAMA4.

Assay [7] concerns MCF-10A breast cancer cell lines containing mutant p53. The assay can be described thus: Boyden chamber invasion through Matrigel, MCF-10A p53 breast cell lines. The class given is cell-based. To be noted: FIG. 13. An excerpt:
FIG. 13. […] P530E is MCF-10A non-malignant breast cell line containing wild type (non-mutated) p53. R248W, R273C and Y220C are three different p53 mutants expressed in MCF-10A breast cells.

The structures appear in SMILES notation. “Also recorded” adds a separate entry of the source.

For `COc1cccc(C(=O)Nc2ccc(N3CCCC3)cc2)c1` [SBI-183, 3-methoxy-N-[4-(1-pyrrolidinyl)phenyl]benzamide], the “growth of UOK117 renal cell carcinoma xenografts” value in assay [1] is reported as “suppresses the growth”. The “inhibition of the enzymatic activity of QSOX1” value in assay [2] is “inhibitor”. The “invasion through Matrigel of MIAPaCa2 pancreatic tumor cells” value in assay [3] is listed as “suppresses invasion”. Moreover, the “invasion of 786-O cells through Matrigel” value in assay [4] is on record as “suppressed invasion”. For the same compound, the “cell viability (MTT)” value in assay [5] is “decreased viability”. Besides, the “deposition of laminin-α4 into the extracellular matrix” value in assay [6] is given as “not deposited; also recorded: inhibits deposition”. For the same compound, in assay [7], the “invasion through Matrigel of MCF-10A breast cell lines (p53 overexpress and mutant p53 R248W, R273C, Y220C)” value is “suppresses invasion”.

Source of the values: patent US20210137883A1, “ANTI-NEOPLASTIC COMPOUNDS AND METHODS TARGETING QSOX1” (ARIZONA BOARD OF REGENTS ON BEHALF OF ARIZONA STATE …, priority 2015, published 2021).
